Measured values taken from EP1200395B1, “UREA DERIVATIVES AS INHIBITORS OF CCR-3 RECEPTOR” (KIRIN BEER KABUSHIKI KAISHA, priority 1999, dated 2001).

Assays:
CCR-3 [1] = target: T1, CCR-3 (Homo sapiens, UniProt P51677); assay: Calcium mobilization assay (inhibition of eotaxin-induced intracellular calcium mobilization in CCR3/HEK293 cells); format: cell-based; parameters: expressed in transfected cells; conditions: eotaxin 10 nM; for Ca^2+ mobilization 6.25 µg/ml (inhibition %): 6.25 µg/ml test compound, CCR3/HEK293 cells (Table 2a); for Ca^2+ mobilization 1.25 µg/ml (inhibition %): 1.25 µg/ml test compound, CCR3/HEK293 cells (Table 2b)
T1 sequence (P51677 1-355): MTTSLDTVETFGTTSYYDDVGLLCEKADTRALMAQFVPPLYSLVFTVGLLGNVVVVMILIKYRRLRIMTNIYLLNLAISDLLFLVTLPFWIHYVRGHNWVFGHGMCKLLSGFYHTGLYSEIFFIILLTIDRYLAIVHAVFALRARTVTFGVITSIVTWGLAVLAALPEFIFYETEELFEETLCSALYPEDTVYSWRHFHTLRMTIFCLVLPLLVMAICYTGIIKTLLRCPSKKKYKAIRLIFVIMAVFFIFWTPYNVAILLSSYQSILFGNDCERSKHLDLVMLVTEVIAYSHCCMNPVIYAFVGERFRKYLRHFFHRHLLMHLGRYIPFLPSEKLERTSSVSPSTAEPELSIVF
Description: Compounds 93-162 used in this assay were synthesized by using the method described in Example 6.
CCR-3 transfectant cells (CCR3/HEK293) were isolated and resuspended with assay buffer (20 mM HEPES, 125 mM NaCl, 5 mM KCl; 0.5 mM glucose, 1 mM CaCl2, 1 mM MgCl2, 0.1 % BSA). After washing CCR3/HEK293 cells with assay buffer, cells were loaded with Fura-2/AM in assay buffer for 1 hour at room temperature. Cells were washed and resuspended with assay buffer at 5 x 10^6 cells/ml in assay buffer, and placed in a tissue culture plate (Falcon, no. 3296). Test compounds dissolved in DMSO were added to the wells, followed by eotaxin (10 nM at final concentration). Cells were excited at 340 nm and 380 nm in a fluorimeter (ARGUS50, FDSS2000, Hamamatsu Photonics) and the relative ratio of the fluorescence emitted at 510 nm was recorded. For a control, DMSO without a test compound was added. Intracellular calcium mobilization was calculated as described in Krogel C. et al. , FEBS Let. (1989) 243 , 41-46.

CCR-3 [2] = target: T1, CCR-3; assay: Eotaxin-induced chemotaxis of CCR-3 transfectant cells (CCR3/U937); format: cell-based; parameters: expressed in transfected cells; host or cells: U937; conditions: 6.25 µg/ml test compound; eotaxin 1 x 10^-9 M; CCR3/U937 cells (Table 3b)

Row | SMILES | Ca^2+ mobilization 6.25 µg/ml (inhibition %) (CCR-3 [1]) | CCR-3 Transfectant Chemotaxis Assay 6.25 µg/ml (inhibition %) (CCR-3 [2]) [%] | Ca^2+ mobilization 1.25 µg/ml (inhibition %) (CCR-3 [1]) [%]
1 | O=C(O)CCCN(CCCNC(=O)Nc1ccc(Cl)c(C(F)(F)F)c1)CCC(c1ccccc1)c1ccccc1 [Compound 97] | 57% | 21 | 
2 | CC(C)CCN(CCCNC(=O)Nc1ccccc1-c1ccccc1)Cc1ccc2c(c1)OCO2 [Compound 99] | . 53% | 47 | 
3 | CSCCCN(CCCNC(=O)Nc1ccccc1-c1ccccc1)Cc1ccc2c(c1)OCO2 [Compound 100] | 53% | 54 | 
4 | O=C(NCCCN(Cc1ccc2c(c1)OCO2)C[C@@H]1CCCN1)Nc1ccccc1-c1ccccc1 [Compound 102] | 63% | 19 | 
5 | COC(=O)CCCN(CCCNC(=O)Nc1ccccc1-c1ccccc1)CCc1ccccc1 [Compound 106] | 57% | 47 | 
6 | O=C(NCCCN(CCc1ccccc1)C[C@@H]1CCCN1)Nc1ccccc1-c1ccccc1 [Compound 107] | 53% | 55 | 
7 | COc1ccc(CCN(CCCNC(=O)Nc2ccccc2-c2ccccc2)CC(C)C)cc1OC [Compound 108] | 61% | 23 | 
8 | CCOC(=O)C1CC1CN(CCCNC(=O)Nc1ccccc1-c1ccccc1)CCc1ccc(OC)c(OC)c1 (stereo not shown) [Compound 109] | 51% | 12 | 
9 | COc1ccc(CCN(CCCNC(=O)Nc2ccccc2-c2ccccc2)C[C@@H]2CCCN2)cc1OC [Compound 110] | 57% | 32 | 
10 | Cc1ccc(CCN(CCCNC(=O)Nc2ccccc2-c2ccccc2)CC(C)C)cc1 [Compound 111] | 51% | 44 | 
11 | CC[N+](CCCNC(=O)Nc1ccc(C#N)cc1)(CCOCCOC)CCc1cccc(Cl)c1.[I-] (stereo not shown) [Compound 394, [3-(4-Cyanophenylureido)propyl][2-(3-chlorophenyl)ethyl][2-(2-methoxyehtoxy)ethyl] ethylammonium iodide] |  |  | 76
12 | CC[N+](CCCNC(=O)Nc1ccc(OC)cc1)(CCOCCOC)CCc1cccc(Cl)c1.[I-] (stereo not shown) [Compound 438, [3-(4-Methoxyphenylureido)propyl][2-(3-chlorophenyl)ethyl][2-(2-methoxyehtoxy)ethyl] ethylammonium iodide] |  |  | 70
13 | CC[N+](CCCNC(=O)Nc1ccc(Cl)c(Cl)c1)(CCOCCOC)CCc1ccc(Cl)cc1.[I-] (stereo not shown) [compound 355] |  |  | 63
14 | CC[N+](CCCNC(=O)Nc1ccc(Cl)c(Cl)c1)(CCOCCOC)CCc1cccc(Cl)c1.[I-] (stereo not shown) [compound 356] |  |  | 57
15 | CC[N+](CCCNC(=O)Nc1ccc(Cl)c(Cl)c1)(CCOCCOC)CCc1ccc(Cl)cc1Cl.[I-] (stereo not shown) [compound 357] |  |  | 57
16 | CC[N+](CCCNC(=O)Nc1ccc(Cl)c(Cl)c1)(CCOCCOC)CCc1ccc(Cl)c(Cl)c1.[I-] (stereo not shown) [compound 358] |  |  | 63
17 | CC[N+](CCCNC(=O)Nc1ccc(Cl)c(Cl)c1)(CCc1cccc(Cl)c1)CC1CCC1.[I-] (stereo not shown) [compound 361] |  |  | 70
18 | CC[N+](CCCNC(=O)Nc1ccc(Cl)c(Cl)c1)(CCc1ccc(Cl)cc1Cl)CC1CCC1.[I-] (stereo not shown) [compound 362] |  |  | 49
19 | CC[N+](CCCNC(=O)Nc1ccc(Cl)c(Cl)c1)(CCc1ccc(Cl)c(Cl)c1)CC1CCC1.[I-] (stereo not shown) [compound 363] |  |  | 56
20 | C=C(C)C[N+](CC)(CCCNC(=O)Nc1ccc(Cl)c(Cl)c1)CCc1ccc(Cl)cc1.[I-] (stereo not shown) [compound 364] |  |  | 66
21 | C=C(C)C[N+](CC)(CCCNC(=O)Nc1ccc(Cl)c(Cl)c1)CCc1cccc(Cl)c1.[I-] (stereo not shown) [compound 365] |  |  | 65

Row | SMILES | Ca^2+ mobilization 6.25 µg/ml (inhibition %) (CCR-3 [1]) | CCR-3 Transfectant Chemotaxis Assay 6.25 µg/ml (inhibition %) (CCR-3 [2]) [%] | Ca^2+ mobilization 1.25 µg/ml (inhibition %) (CCR-3 [1]) [%]
22 | C=C(C)C[N+](CC)(CCCNC(=O)Nc1ccc(Cl)c(Cl)c1)CCc1ccc(Cl)cc1Cl.[I-] (stereo not shown) [compound 366] |  |  | 46
23 | C=C(C)C[N+](CC)(CCCNC(=O)Nc1ccc(Cl)c(Cl)c1)CCc1ccc(Cl)c(Cl)c1.[I-] (stereo not shown) [compound 367] |  |  | 50
24 | CC[N+](CCCNC(=O)Nc1ccc(C#N)cc1)(CCc1cccc(Cl)c1)CCC(C)C.[I-] (stereo not shown) [compound 393] |  |  | 56
25 | CC[N+](CCCNC(=O)Nc1ccc(C#N)cc1)(CCOCCOC)CCc1ccc(Cl)cc1Cl.[I-] (stereo not shown) [compound 395] |  |  | 69
26 | CC[N+](CCCNC(=O)Nc1ccc(C#N)cc1)(CCOCCOC)CCc1ccc(Cl)c(Cl)c1.[I-] (stereo not shown) [compound 396] |  |  | 67
27 | CC[N+](CCCNC(=O)Nc1ccc(C#N)cc1)(CCc1cccc(Cl)c1)CC1CCC1.[I-] (stereo not shown) [compound 397] |  |  | 69
28 | CC[N+](CCCNC(=O)Nc1ccc(C#N)cc1)(CCc1ccc(Cl)cc1Cl)CC1CCC1.[I-] (stereo not shown) [compound 398] |  |  | 70
29 | C=C(C)C[N+](CC)(CCCNC(=O)Nc1ccc(C#N)cc1)CCc1cccc(Cl)c1.[I-] (stereo not shown) [compound 399] |  |  | 58
30 | C=C(C)C[N+](CC)(CCCNC(=O)Nc1ccc(C#N)cc1)CCc1ccc(Cl)cc1Cl.[I-] (stereo not shown) [compound 400] |  |  | 68
31 | C=C(C)C[N+](CC)(CCCNC(=O)Nc1ccc(C#N)cc1)CCc1ccc(Cl)c(Cl)c1.[I-] (stereo not shown) [compound 401] |  |  | 57
32 | CC[N+](CCCNC(=O)Nc1ccc(OC)cc1)(CCc1cccc(Cl)c1)CCC(C)C.[I-] (stereo not shown) [compound 435] |  |  | 62
33 | CC[N+](CCCNC(=O)Nc1ccc(OC)cc1)(CCc1ccc(Cl)c(Cl)c1)CCC(C)C.[I-] (stereo not shown) [compound 436] |  |  | 57
34 | CC[N+](CCCNC(=O)Nc1ccc(OC)cc1)(CCc1ccc(Cl)c(Cl)c1)CC(N)=O.[I-] (stereo not shown) [compound 437] |  |  | 64
35 | CC[N+](CCCNC(=O)Nc1ccc(OC)cc1)(CCc1ccc(Cl)cc1)CC1CCC1.[I-] (stereo not shown) [compound 440] |  |  | 62
36 | CC[N+](CCCNC(=O)Nc1ccc(OC)cc1)(CCc1cccc(Cl)c1)CC1CCC1.[I-] (stereo not shown) [compound 441] |  |  | 71
37 | CC[N+](CCCNC(=O)Nc1ccc(OC)cc1)(CCc1ccc(Cl)cc1Cl)CC1CCC1.[I-] (stereo not shown) [compound 442] |  |  | 63
38 | CC[N+](CCCNC(=O)Nc1ccc(OC)cc1)(CCc1ccc(Cl)c(Cl)c1)CC1CCC1.[I-] (stereo not shown) [compound 443] |  |  | 69
39 | C=C(C)C[N+](CC)(CCCNC(=O)Nc1ccc(OC)cc1)CCc1ccc(Cl)cc1.[I-] (stereo not shown) [compound 444] |  |  | 72
40 | C=C(C)C[N+](CC)(CCCNC(=O)Nc1ccc(OC)cc1)CCc1cccc(Cl)c1.[I-] (stereo not shown) [compound 445] |  |  | 63
41 | C=C(C)C[N+](CC)(CCCNC(=O)Nc1ccc(OC)cc1)CCc1ccc(Cl)cc1Cl.[I-] (stereo not shown) [compound 446] |  |  | 76
42 | C=C(C)C[N+](CC)(CCCNC(=O)Nc1ccc(OC)cc1)CCc1ccc(Cl)c(Cl)c1.[I-] (stereo not shown) [compound 447] |  |  | 65
